“And” between values parts separate entries of the source, which are not always exact repeats. Equal values may be shown once.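 1) Cells in 96-well plates. 2) Compound, 48 h, 5 concentrations. 3) Linear interpolation between surrounding doses. 4) Unreached endpoint = highest concentration. At the GI50, growth is halved. Definition used: TGI = concentration required for complete inhibition of growth.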
Tests used:
Experiment in all cases: inhibition of tumour cell growth, NCI panel, 48 h
EKVX NSCLC = test system: EKVX NSCLC
A498 renal = test system: A498 renal
NCI-H522 lung = test system: NCI-H522 lung
SR leukemia = test system: SR leukemia
IGROV1 ovarian = test system: IGROV1 ovarian
HT29 colon = test system: HT29 colon
KM12 colon = test system: KM12 colon
SN12C renal = test system: SN12C renal
T-47D breast = test system: T-47D breast
A549 NSCLC = test system: A549 NSCLC
SF-268 CNS = test system: SF-268 CNS
MDA-N = test system: MDA-N
NCI-H23 lung = test system: NCI-H23 lung
HOP-62 NSCLC = test system: HOP-62 NSCLC
SK-OV-3 ovarian = test system: SK-OV-3 ovarian

`CCCCc1ccc(Nc2nc(N)c3ncn(COCCO)c3n2)cc1` was tested, and the TGI (EKVX NSCLC) was > 100 µM, the TGI (A498 renal) was 88.7 µM and the TGI (NCI-H522 lung) was 69.7 µM. For the same compound, the TGI (SR leukemia) was > 100 µM, the TGI (IGROV1 ovarian) was 60.8 µM and the TGI (HT29 colon) was 57.2 µM. The TGI (KM12 colon) was > 100 µM, the TGI (SN12C renal) was > 100 µM and the TGI (T-47D breast) was 91.6 µM. For the same compound, the TGI (A549 NSCLC) was > 100 µM, the TGI (SF-268 CNS) was > 100 µM and the TGI (MDA-N) was > 100 µM. For the same compound, the TGI (NCI-H23 lung) was 56.3 µM, the TGI (HOP-62 NSCLC) was 45.1 µM and the TGI (SK-OV-3 ovarian) was 26.9 µM.

With `Cc1c(F)c(N)c2c(=O)cc(-c3ccc(NC(=O)[C@@H](N)CCCCN)c(F)c3)oc2c1F` the TGI (EKVX NSCLC) was 28.4 µM and 22.6 µM, the TGI (A498 renal) was 0.22 µM and the GI50 (NCI-H522 lung) was 19.7 µM and 4.68 µM. For the same compound, the TGI (NCI-H522 lung) was 45.5 µM and 35.3 µM, the GI50 (SR leukemia) was 5.84 µM and 2.53 µM and the TGI (SR leukemia) was 20.3 µM and 9.55 µM. For the same compound, the TGI (IGROV1 ovarian) was 19.5 µM and 18.1 µM, the TGI (HT29 colon) was 31 µM and 26.4 µM and the TGI (KM12 colon) was 24.8 µM and 22.4 µM. The TGI (SN12C renal) was 31.7 µM and 32.7 µM, the TGI (T-47D breast) was 28.7 µM and > 57.3 µM and the GI50 (A549 NSCLC) was 3.03 µM and 0.59 µM. The TGI (A549 NSCLC) was 31 µM and 18.4 µM, the TGI (SF-268 CNS) was 34.7 µM and 39.6 µM and the TGI (MDA-N) was 28.7 µM and 24.6 µM. The GI50 (NCI-H23 lung) was 5.61 µM and 15.4 µM, the TGI (NCI-H23 lung) was 23.3 µM and 37.5 µM and the TGI (HOP-62 NSCLC) was 27.3 µM and 24 µM. For the same compound, the TGI (SK-OV-3 ovarian) was 31.6 µM and 32.6 µM.

With `CN(C)/C=C/c1ccncc1` the TGI (EKVX NSCLC) was > 100 µM, the TGI (A498 renal) was > 100 µM and the TGI (NCI-H522 lung) was > 100 µM. The TGI (SR leukemia) was > 100 µM, the TGI (IGROV1 ovarian) was > 100 µM and the TGI (HT29 colon) was > 100 µM. The TGI (KM12 colon) was > 100 µM, the TGI (SN12C renal) was > 100 µM and the TGI (T-47D breast) was > 100 µM. For the same compound, the TGI (A549 NSCLC) was > 100 µM, the TGI (SF-268 CNS) was > 100 µM and the TGI (MDA-N) was > 100 µM. The TGI (NCI-H23 lung) was > 100 µM, the TGI (HOP-62 NSCLC) was > 100 µM and the TGI (SK-OV-3 ovarian) was > 100 µM.

For `CN(C)CCCNc1ccc2nnn3c4ccc(OC(=O)c5ccc([N+](=O)[O-])cc5)cc4c(=O)c1c23`, the TGI (EKVX NSCLC) was 25.1 µM, the TGI (A498 renal) was 49.1 µM and the TGI (NCI-H522 lung) was 24 µM. For the same compound, the TGI (SR leukemia) was 11.5 µM, the TGI (IGROV1 ovarian) was > 100 µM and the TGI (HT29 colon) was 20.6 µM. For the same compound, the TGI (KM12 colon) was 21.3 µM, the TGI (SN12C renal) was 19.6 µM and the TGI (T-47D breast) was 88.5 µM. For the same compound, the TGI (A549 NSCLC) was 20.6 µM, the TGI (SF-268 CNS) was 21.9 µM and the TGI (MDA-N) was 26 µM. The TGI (NCI-H23 lung) was 24.5 µM, the TGI (HOP-62 NSCLC) was > 33.1 µM and the TGI (SK-OV-3 ovarian) was 26.7 µM.

`CC(C)c1nc2c(Cl)c3ncccc3cc2[nH]c1=O` was tested, and the TGI (EKVX NSCLC) was > 100 µM, the TGI (A498 renal) was > 100 µM and the TGI (NCI-H522 lung) was > 100 µM. The TGI (SR leukemia) was > 100 µM, the TGI (IGROV1 ovarian) was > 100 µM and the TGI (HT29 colon) was > 100 µM. The TGI (KM12 colon) was > 100 µM, the TGI (SN12C renal) was > 100 µM and the TGI (T-47D breast) was > 100 µM. For the same compound, the TGI (A549 NSCLC) was > 100 µM, the TGI (SF-268 CNS) was > 100 µM and the TGI (MDA-N) was > 100 µM. The TGI (NCI-H23 lung) was > 100 µM, the TGI (HOP-62 NSCLC) was > 100 µM and the TGI (SK-OV-3 ovarian) was > 100 µM.

With `O=C(NCCN1CCCC1)c1cn2c(ccc3sc4ccccc4c(=O)c32)n1` the TGI (EKVX NSCLC) was 34.8 µM, the TGI (A498 renal) was 33.1 µM and the TGI (NCI-H522 lung) was 27.4 µM. It also gave a TGI (SR leukemia) of 8.79 µM, a TGI (IGROV1 ovarian) of 25 µM and a TGI (HT29 colon) of 7.67 µM. It also gave a TGI (KM12 colon) of 37.5 µM, a TGI (SN12C renal) of 26.9 µM and a TGI (T-47D breast) of 38.1 µM. For the same compound, the TGI (A549 NSCLC) was 24.5 µM, the TGI (SF-268 CNS) was 30.1 µM and the TGI (MDA-N) was 33.1 µM. It also gave a TGI (NCI-H23 lung) of 32.4 µM, a TGI (HOP-62 NSCLC) of 25.8 µM and a TGI (SK-OV-3 ovarian) of 30 µM.

`O=C1C(=C(C(=O)c2ccccc2)C(=O)c2ccccc2)OC(c2ccccc2)=C1C(=O)c1ccccc1` was tested, and the TGI (EKVX NSCLC) was 34.8 µM, the TGI (A498 renal) was 44.2 µM and the TGI (NCI-H522 lung) was 19.5 µM. The TGI (SR leukemia) was 14.2 µM, the TGI (IGROV1 ovarian) was 8.84 µM and the TGI (HT29 colon) was 26.5 µM. For the same compound, the TGI (KM12 colon) was 42.3 µM, the TGI (SN12C renal) was 19.2 µM and the TGI (T-47D breast) was 53.6 µM. For the same compound, the TGI (A549 NSCLC) was 51.6 µM, the TGI (SF-268 CNS) was 34.8 µM and the TGI (MDA-N) was 77.9 µM. The TGI (NCI-H23 lung) was 25.8 µM, the TGI (HOP-62 NSCLC) was 15.6 µM and the TGI (SK-OV-3 ovarian) was 34.6 µM.

For `O=C(CN1CCOCC1)Nc1ccc2c(c1)C1Oc3ccccc3CC1CO2` (centres undefined), the TGI (EKVX NSCLC) was > 100 µM, the TGI (A498 renal) was > 100 µM and the TGI (NCI-H522 lung) was > 100 µM. The TGI (SR leukemia) was > 100 µM, the TGI (IGROV1 ovarian) was > 100 µM and the TGI (HT29 colon) was > 100 µM. For the same compound, the TGI (KM12 colon) was > 100 µM, the TGI (SN12C renal) was > 100 µM and the TGI (T-47D breast) was > 100 µM. The TGI (A549 NSCLC) was > 100 µM, the TGI (SF-268 CNS) was > 100 µM and the TGI (MDA-N) was > 100 µM. The TGI (NCI-H23 lung) was > 100 µM, the TGI (HOP-62 NSCLC) was > 100 µM and the TGI (SK-OV-3 ovarian) was > 100 µM.

With `C1=NCCNCCN=Cc2ccccc2OCc2cccc(n2)COc2ccccc21` the TGI (EKVX NSCLC) was > 100 µM, the TGI (A498 renal) was > 100 µM and the TGI (NCI-H522 lung) was > 66.8 µM. For the same compound, the TGI (SR leukemia) was > 100 µM, the TGI (IGROV1 ovarian) was > 100 µM and the TGI (HT29 colon) was 47.3 µM. For the same compound, the TGI (KM12 colon) was > 62.2 µM, the TGI (SN12C renal) was > 100 µM and the TGI (T-47D breast) was > 100 µM. For the same compound, the TGI (A549 NSCLC) was > 100 µM, the TGI (SF-268 CNS) was > 96 µM and the TGI (MDA-N) was 31.4 µM. For the same compound, the TGI (NCI-H23 lung) was > 52.9 µM, the TGI (HOP-62 NSCLC) was 54.8 µM and the TGI (SK-OV-3 ovarian) was > 100 µM.

`O=C(OC(/C=C/c1ccccc1)P1(=O)N(Cc2ccccc2)[C@@H]2CCCC[C@H]2N1Cc1ccccc1)c1ccccc1` (some centres undefined) was tested, and the TGI (EKVX NSCLC) was > 100 µM, the TGI (A498 renal) was > 100 µM and the TGI (NCI-H522 lung) was > 30.6 µM. The TGI (SR leukemia) was 15.2 µM, the TGI (IGROV1 ovarian) was > 25.6 µM and the TGI (HT29 colon) was > 100 µM. For the same compound, the TGI (KM12 colon) was > 100 µM, the TGI (SN12C renal) was > 100 µM and the TGI (T-47D breast) was > 100 µM. The TGI (A549 NSCLC) was > 100 µM, the TGI (SF-268 CNS) was > 100 µM and the TGI (MDA-N) was > 100 µM. The TGI (NCI-H23 lung) was > 31.5 µM, the TGI (HOP-62 NSCLC) was > 100 µM and the TGI (SK-OV-3 ovarian) was > 100 µM.

With `CCCCCCCCCC1CC(=O)NCC(=O)NC(C(C)C)C(=O)NC(CC(C)C)C(=O)NC(C)C(=O)NC(C(C)C)C(=O)O1` (centres undefined) the TGI (EKVX NSCLC) was > 79.9 µM, the TGI (A498 renal) was > 55.4 µM and the TGI (NCI-H522 lung) was 35.2 µM. For the same compound, the TGI (SR leukemia) was > 92.4 µM, the TGI (IGROV1 ovarian) was > 100 µM and the TGI (HT29 colon) was 21.5 µM. The TGI (KM12 colon) was 33.9 µM, the TGI (SN12C renal) was 80.2 µM and the TGI (T-47D breast) was > 100 µM. For the same compound, the TGI (A549 NSCLC) was 40.9 µM, the TGI (SF-268 CNS) was 16.1 µM and the TGI (MDA-N) was > 100 µM. The TGI (NCI-H23 lung) was 42.2 µM, the TGI (HOP-62 NSCLC) was 55 µM and the TGI (SK-OV-3 ovarian) was 39.2 µM.

With `COc1cccc(C[C@H]2COC(=O)[C@]2(O)Cc2cccc(OC)c2)c1` the TGI (EKVX NSCLC) was 81.6 µM, the TGI (A498 renal) was > 100 µM and the TGI (NCI-H522 lung) was > 100 µM. The TGI (SR leukemia) was > 100 µM, the TGI (IGROV1 ovarian) was > 100 µM and the TGI (HT29 colon) was > 100 µM. The TGI (KM12 colon) was > 100 µM, the TGI (SN12C renal) was > 100 µM and the TGI (T-47D breast) was 67.9 µM. For the same compound, the TGI (A549 NSCLC) was > 100 µM, the TGI (SF-268 CNS) was 39.4 µM and the TGI (MDA-N) was > 100 µM. For the same compound, the TGI (NCI-H23 lung) was > 100 µM, the TGI (HOP-62 NSCLC) was > 100 µM and the TGI (SK-OV-3 ovarian) was > 100 µM.

Source: PubChem BioAssay (NCI)
